The values that follow come from patent US9861640B2, “Medicament for treatment of Alzheimer's disease” (KEMPHYS LTD., priority 2013, dated 2018).

Experiment [1] relates to Cd36 mRNA. The experiment can be described thus: RT-PCR of Cd36 mRNA in brains of APP23 mice. It counts as in vivo, mouse. As to conditions: Am80 0.5 and/or HX630 5 mg/kg/d, day 18. On the procedure: APP23 mice begin forming amyloid deposits when they are 6 months old, but memory deficits in the MWM test appear quite early (before 3 months of age). Here, we used 8.5-month-old male APP23 mice and their WT littermates (C57BL/6J). We used stratified random sampling to divide mice (four to six per cage) into four groups to equalize the mean body weight of the study groups: mice given 0.5 mg/kg/d Am80, those given 5 mg/kg/d HX630, those given the mixture of 0.5 mg/kg/d Am80 and 5 mg/kg/d HX630, and those given the vehicle. Am80 and HX630 were suspended in 0.5% (w/v) carboxymethylcellulose solution and were orally administered to mice at 0.5 mg/kg (Am80) or 5 mg/kg (HX630) for 17 consecutive days (once daily at 18:00). Control animals received the same volume of 0.5% (w/v) carboxymethylcellulose solution orally, without the other compounds. […]
For semi-quantitative RT-PCR analysis, PCRs were carried out with Quick Taq HS DyeMix (DTM-101; Toyobo Co. Ltd., Osaka, Japan). […] Semi-quantitative PCR consisted of an initial denaturation cycle at 94° C. for 2 min, followed by 40 cycles for Cd36, 35 cycles for Mme, 30 cycles for Ide, and 26 cycles for β-actin. […] Densitometric quantification was done with the Image Gauge software program (Fuji Photo Film Co., Tokyo, Japan). […]

In experiment [2] the target is RARγ (Homo sapiens, UniProt P13631). Particulars: [50]; cited from earlier work.
Chain of RARγ (P13631 whole entry, species assumed): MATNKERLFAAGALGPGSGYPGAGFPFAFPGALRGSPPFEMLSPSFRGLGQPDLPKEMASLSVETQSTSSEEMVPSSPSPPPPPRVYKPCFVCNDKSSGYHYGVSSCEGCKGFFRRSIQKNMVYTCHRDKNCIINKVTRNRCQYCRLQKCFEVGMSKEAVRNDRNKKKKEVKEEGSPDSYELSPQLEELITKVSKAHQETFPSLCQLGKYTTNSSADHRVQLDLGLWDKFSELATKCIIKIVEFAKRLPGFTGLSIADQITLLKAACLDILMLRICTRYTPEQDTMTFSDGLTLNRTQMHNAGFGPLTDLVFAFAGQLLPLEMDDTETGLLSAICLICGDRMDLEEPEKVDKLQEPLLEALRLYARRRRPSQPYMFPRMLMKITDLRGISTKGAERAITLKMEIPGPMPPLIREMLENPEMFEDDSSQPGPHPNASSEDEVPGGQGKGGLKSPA

Turning to `CN1c2ccccc2N=C(c2ccc(C(=O)O)cc2)c2cc3c(cc21)C(C)(C)CCC3(C)C` [HX630, 4-[5H-2,3-(2,5dimethyl-2,5-hexano)-5-methyldibenzo[b,e]-diazepin-11-yl]benzoic acid], in experiment [1], the “Cd36 mRNA level” value is “increased”.
For the compound `CC1(C)CCC(C)(C)c2cc(NC(=O)c3ccc(C(=O)O)cc3)ccc21` [Am80, 4-{(5,6,7,8-tetrahydro-5,5,8,8-tetramethyl-2-naphthalenyl)carbamoyl}benzoic acid], the “binding to RARγ” value in experiment [2] is given as “hardly binds”.
